# Patent US20050043262A1, “Novel specific inhibitor of the cyclin kinase inhibitor p21Waf1/Cip1 and methods of using the inhibitor” (priority 2000, published 2005)
# Columns and labels:
# [1] = tested on: A10 VSM cells; experiment: [3H]thymidine incorporation (DNA synthesis) in A10 VSM cells; format: cell-based, rat
# [2] = tested on: p21^Waf1/Cip1; experiment: p21 protein level by Western blot in A10 VSM cells; format: cell-based, rat
# Experimental: (§1) Western blots: Cells were grown to confluence in 6 cm culture dishes and serum deprived. After transfection and or treatment with appropriate agonist, the cells were washed with phosphate-buffered saline and lysed in lysis buffer and the supernatant was Western blotted as described (Weiss et al., 1998 Am. J. Physiol., 274, p. C1521-C1529).
# To determine whether antisense transfection with p21^Waf1/Cip1 antisense oligonucleotides indeed decreases p21^Waf1/Cip1 protein levels, p21^Waf1/Cip1 levels after antisense transfection were examined employing the fact that PMA is a potent inducer of p21^Waf1/Cip1 (Huang et al., 1995 Proc. Natl. Acad. Sci. U.S.A., 92, p. 4793-4797; Michieli et al., 1994 Cancer Res., 54, p. 3391-3395). Since p21^Waf1/Cip1 protein levels were induced in VSM cells between 2 and 6 hours after PMA stimulation (FIG. 4), the p21^Waf1/Cip1 levels in transfected cells after similar times of PMA stimulation were examined. […] There was no effect of the p21^Waf1/Cip1 sense (SEQ. ID NO.:2) control oligodeoxynucleotide on cellular p21^Waf1/Cip1 levels (compare with FIG. 4).
# To check for specificity of protein inhibition by the antisense p21^Waf1/Cip1 oligodeoxynucleotide (SEQ. ID NO.: 1), protein levels of p21^Waf1/Cip1 and p27^Kip1 after transfection with antisense p21^Waf1/Cip1 oligodeoxynucleotide (SEQ. ID NO.:1) were examined. In these experiments the ability of antisense oligodeoxynucleotides (SEQ. ID NO.:1) to inhibit maximally stimulated CKI expression (see FIG. 4) was assessed. The cells were stimulated with PMA for 4 hours at various times after overnight serum starvation.
# (§2) Western blots: Cells were grown to confluence in 6 cm culture dishes and serum deprived. After transfection and or treatment with appropriate agonist, conditioned medium was removed and saved and the cells were washed with phosphate-buffered saline and lysed in lysis buffer. Both supernatant and cell lysate were normalized to the lysate protein concentrations and Western blotted as described (Weiss R H, et al. Am J Physiol 274:C1521-C1529, 1998).
# To confirm that p21 levels were increased after exposure to ionizing radiation, and that the oligonucleotides inhibit this phenomenon in A10 cells, p21 protein levels under these conditions were assayed. […] With the exception of the initial decrease in p21 levels at ½ and 1 hours, the results with the control oligonucleotides were similar to that observed in non-transfected cells.
# Adriamycin is a prototypical DNA damaging agent used in the treatment of a variety of cancers. The predominantly G2 arrest seen after Adriamycin treatment has been associated with an increase in p21 levels in some cell lines (Siu W Y, et al. FEBS Lett 461:299-305, 1999). In order to determine whether similar augmentation of p21 is seen in A10 VSM cells and whether the antisense p21 oligonucleotide is inhibiting this response, these cells were treated with Adriamycin either with or without first transfecting the cells with the antisense and control oligonucleotides. Confluent VSM cells were transfected with antisense oligonucleotide to p21 or random sequence control oligonucleotide as described above. After 24 hours, the cells were exposed to Adriamycin (500 ng/ml), lysed at the indicated times after exposure, and Western blotted with p21 antibody.
# Using a random sequence phosphorothioate oligodeoxynucleotide (SEQ. ID NO.:3) as a control, the effect of the antisense oligodeoxynucleotide to p21 (400 nM) on p21 and α-actin protein expression in A10 VSM cells, was examined. The lysates, normalized for protein content, were Western blotted with either p21 or α-actin antibody.
# [3] = tested on: p21^Waf1/Cip1; experiment: PMA-induced p21 level by Western blot in A431 cells; format: cell-based, human; settings: 200 nM oligodeoxynucleotide, PMA 100 ng/ml up to 6 hours
# Experimental: as §1, with “and Nuccitelli, 1992” for “et al., 1998 Am.”, “Biol. Chem., 267,” for “Physiol., 274,”, “5608-5613).” for “C1521-C1529).”
# PMA is a potent inducer of p21^Waf1/Cip1 in a variety of different cell lines (Huang et al., 1995 Proc. Natl. Acad. Sci. US.A., 92, p. 4793-4797; Michieli et al., 1994 Cancer Res., 54, p. 3391-3395) and was employed to examine p21^Waf1/Cip1 levels after antisense transfection and confirm efficacy of translation to attenuate p21^Waf1/Cip1 levels. A431 cells were transfected with 200 nM antisense p21^Waf1/Cip1 (SEQ. ID NO.:1) or sense p21^Waf1/Cip1 oligodeoxynucleotide (SEQ. ID NO.:2). After overnight incubation in serum-free medium, the cells were stimulated with PMA (100 ng/ml) for the times indicated, lysed, and the lysates were Western blotted with p21^Waf1/Cip1 or α-actin antibody.
# [4] = tested on: caspase-3; experiment: Caspase-3 activation (cleavage product) by Western blot in VSM cells; format: cell-based, rat; settings: Adriamycin experiment (FIG. 19b)
# Experimental: FIGS. 19A and B depict how Caspase-3 is activated by antisense oligonucleotide to p21 but not early after radiation or Adriamycin, as described in Example III, infra. Confluent VSM cells were transfected with oligonucleotide in the concentration indicated, left in serum-containing media overnight, and exposed to (A) ionizing radiation (12 Gy) or (B) Adriamycin where indicated. 4 hours later, activation of caspase-3 was assessed by Western blotting. The arrowhead indicates the cleavage product of caspase-3 signifying its processing as an early step in apoptosis. Wortmannin (wort) is a positive control for apoptosis. […] The experiment shown is representative of two separate experiments.
# as §2
# In order to determine whether the potentiation of ionizing radiation and Adriamycin induced DNA synthesis inhibition by p21 antisense oligonucleotides is accompanied by apoptosis, caspase-3 activation in response to ionizing radiation was examined. Caspase-3 is an effector caspase whose activation (leading to apoptosis) results in a 20 kD cleavage product which can be assessed by Western blotting (McCarthy N J, Evan G I. Curr Top Dev Biol 36:259-278, 1998). This process is an early event in a cascade of reactions which ultimately leads to apoptosis, as is evident by the fact that inactivation of caspase-3 dramatically reduces apoptosis in several cell lines (Woo M, et al. Genes Dev 12:806-819, 1998).
# VSM cells were transfected with antisense or control oligonucleotides overnight and then stimulated with ionizing radiation.
# [5] = tested on: A431 cells; experiment: [3H]thymidine incorporation (DNA synthesis) in A431 cells; format: cell-based, human; settings: PMA 100 ng/ml
# Experimental: FIG. 9A-D are bar graphs showing Antisense p21^Waf1/Cip1 oligodeoxynucleotide has no significant effect DNA synthesis in PMA-inhibitable A431 cells, as described in Example II, infra. […] A431 cells were placed in serum-free medium overnight and then stimulated with (A) PDGF-BB (30 ng/ml), (B) 10% serum-containing medium, or (C) PDGF-BB or PMA (100 ng/ml) for another 8 hours before [^3H]-thymidine was added for overnight incubation. (D) A10 VSM cells were transfected with sense and antisense p21^Waf1/Cip1 oligonucleotides as above and treated similarly to (B). DNA synthesis was assessed by [^3H]-thymidine incorporation and is expressed as mean ±s.e.m. of three wells per data point. The absolute counts differ between experiments due to different confluency of the cells. The experiments shown are representative of two separate experiments.
# Cell culture and DNA synthesis: Cultures of A10 and A431 cells were obtained from American Type Culture Collection (Rockville Md), were maintained as described (Weiss et al. 1998, Am. J. Physiol. 274, C1521-C1529), and were used between passages 15 and 24 or 25 and 35, respectively. The cells were growth-arrested by placing them in serum-free quiescence medium, exposed to growth factors as indicated, and [^3H]thymidine incorporation assessed as previously described (Weiss and Nuccitelli, 1992, J. Biol. Chem. 267, 5608-5613).
# This A431 data is in contrast with that obtained in a variety of VSM cell lines, where cell growth was inhibited by similar oligodeoxynucleotide concentrations in cell stimulated with both PDGF-BB and serum (FIG. 9d).
# [6] = tested on: laminin; experiment: Laminin production and secretion (immunoblot of lysate and conditioned media); format: cell-based, rat; settings: control oligodeoxynucleotide transfected cells, TGF-β higher doses
# Experimental: as §2, with “and/or” for “and or”, “(Weiss, R. H.;” for “(Weiss R H,”, “Am. J. Physiol. 274: C1521-C1529;” for “Am J Physiol 274:C1521-C1529,”
# The p21 influences on matrix protein secretion in VSM cells were determined. Levels of the matrix proteins laminin and fibronectin were examined in both TGF-β stimulated lysate and conditioned media of cells in which p21 expression had been attenuated. The cells were transfected with either antisense p21 (SEQ. ID NO.:1) (400 nM), or random sequence control (SEQ. ID NO.:3) (400 nM) oligodeoxynucleotide, and then stimulated with TGF-β at for 0.1 to 10 ng/ml for 4 hours. Conditioned media and cell lysate were collected, and both medium and lysate volumes were normalized for the protein content in total cell lysate to exclude any skewing of the data due to cell proliferation. The proteins were electrophoresed and immunoblotted with either fibronectin (after immunoprecipitation to eliminate extraneous bands which appeared in the absence of this procedure) or laminin antibody.
# [7] = tested on: fibronectin; experiment: Fibronectin production and secretion (immunoprecipitation/immunoblot); format: cell-based, rat; settings: VSM cells, TGF-β, maximal level in lysate at higher doses
# Experimental: Immunoprecipitations: VSM cells were grown to confluence. After incubation under appropriate conditions, the cells were washed with ice-cold phosphate-buffered saline and immediately lysed in lysis buffer (20 mM Tris [pH7.5], 150 mM NaCl, 1 mM EDTA, 1 mM EGTA, 1% Triton X-100, 2.5 mM sodium pyrophosphate, 1 mM β-glycerolphosphate, 1 mM Na3VO4, 1 μg/ml Leupeptin, 1 mM PMSF) at 4° C. The cells were scraped off with a rubber spatula and the insoluble material removed by centrifuging at 10,000× g for 10 min at 4° C. Protein concentration was determined by A595, and lysates containing equal amounts of protein were incubated with […] anti-fibronectin antibody at 4° C. overnight. Protein A-Sepharose beads were added and the resulting mixture was incubated for an additional 2 hours at 4° C. The beads were centrifuged in a microfuge for 20 sec, and the pellet was washed 3 times with cold lysis buffer. The supernatant was decanted, gel loading buffer was added to the precipitate, and the solution was boiled for 5 min, and centrifuged. The supernatant was electrophoresed on a 7.5% SDS-polyacrylamide gel with equal volumes of sample per lane. The proteins were electrophoretically transferred to nitrocellulose and probed with fibronectin antibody.
# The p21 influences on matrix protein secretion in VSM cells were determined. […]
compound,measurement,setting,value
"5′-ATGTCCGATCCTGGTGATGTC-3′ (sense ATGTCCGATCCTGGTGATGTC; DNA, backbone not given here) [Sense p21Waf1/Cip1 control oligodeoxynucleotide, reference compound]","PDGF-stimulated DNA synthesis, dose/response","[1]; A10 VSM cells, increasing oligodeoxynucleotide concentration up to 200 nM",no effect
same,PMA-induced p21^Waf1/Cip1 levels,"[2]; A10 VSM cells, PMA stimulation up to 6 hours after transfection",no effect
same,PMA-induced p21^Waf1/Cip1 levels,[3],no effect
"COc1cccc2c1C(=O)c1c(O)c3c(c(O)c1C2=O)C[C@@](O)(C(=O)CO)C[C@@H]3O[C@H]1C[C@H](N)[C@H](O)[C@H](C)O1 [Adriamycin, Adriamycin (doxorubicin), reference compound]",growth inhibitory effect of Adriamycin (DNA synthesis),"[1]; control oligonucleotide transfected VSM cells, 500 to 2000 ng/ml for 2 hours",plateaued
same,p21 levels after Adriamycin exposure,"[2]; VSM cells, Adriamycin 500 ng/ml",increased
same,caspase-3 activation,[4],little effect
"CCCCCCCCCCCCCC(=O)O[C@@H]1[C@@H](C)[C@@]2(O)[C@@H](C=C(CO)C[C@]3(O)C(=O)C(C)=C[C@@H]23)[C@@H]2C(C)(C)[C@]12OC(C)=O [PMA, reference compound]",p21^Waf1/Cip1 protein levels after PMA stimulation,"[2]; non-transfected VSM cells, PMA 100 ng/ml, between 2 and 6 hours",induced
same,growth of A431 cells with PMA,[5],significant growth inhibition
TGF-β: growth factor TGF-β1 obtained from Upstate Biotechnology,DNA synthesis in serum-starved cells,"[1]; A10 VSM cells, TGF-β 0.1 to 10 ng/ml for 24 hours",significantly reduced
same,inhibitory effect of TGF-β on DNA synthesis in transfected cells,"[1]; antisense or control transfected A10 VSM cells, 10% serum, TGF-β 10 ng/ml",still present
same,laminin secretion,[6],decrease laminin secretion at higher doses
same,fibronectin production,[7],induced fibronectin production
